# Key:
# Experiment in all cases: biochemical
# Format in all cases: biochemical
# [1] = biological target: 363 human kinases (including Aurora A/B/C) (Homo sapiens, UniProt O00238); conditions: ALK6/BMPR1B, [ATP] 10 µM; for remaining activity at 0.1 µM: 100 nM; for remaining activity at 0.1 µM / remaining activity at 0.5 µM: read-out: % Enzyme Activity (relative to DMSO controls)
# Excerpt: (§1) However, the Aurora A/B selectivity ratios derived from our in vitro and in vivo data can be compared to prioritize inhibitors.
# [2] = biological target: 363 human kinases (including Aurora A/B/C) (Homo sapiens, UniProt P22455); conditions: FGFR4, [ATP] 100 µM; for remaining activity at 0.1 µM: 100 nM; for remaining activity at 0.1 µM / remaining activity at 0.5 µM: read-out: % Enzyme Activity (relative to DMSO controls)
# Excerpt: as §1
# [3] = biological target: 363 human kinases (including Aurora A/B/C) (Homo sapiens, UniProt P51812); conditions: RSK2; for remaining activity at 0.1 µM: 100 nM; for remaining activity at 0.1 µM / remaining activity at 0.5 µM: read-out: % Enzyme Activity (relative to DMSO controls)
# Excerpt: as §1
# [4] = biological target: 363 human kinases (including Aurora A/B/C) (Homo sapiens, UniProt Q02779); conditions: MLK2/MAP3K10; for remaining activity at 0.1 µM: 100 nM; for remaining activity at 0.1 µM / remaining activity at 0.5 µM: read-out: % Enzyme Activity (relative to DMSO controls)
# Excerpt: as §1
# [5] = biological target: T1, 363 human kinases (including Aurora A/B/C) (Homo sapiens, UniProt Q7L7X3); conditions: TAOK1; for remaining activity at 0.1 µM: 100 nM; for remaining activity at 0.1 µM / remaining activity at 0.5 µM: read-out: % Enzyme Activity (relative to DMSO controls)
# T1 sequence (Q7L7X3 1-1001): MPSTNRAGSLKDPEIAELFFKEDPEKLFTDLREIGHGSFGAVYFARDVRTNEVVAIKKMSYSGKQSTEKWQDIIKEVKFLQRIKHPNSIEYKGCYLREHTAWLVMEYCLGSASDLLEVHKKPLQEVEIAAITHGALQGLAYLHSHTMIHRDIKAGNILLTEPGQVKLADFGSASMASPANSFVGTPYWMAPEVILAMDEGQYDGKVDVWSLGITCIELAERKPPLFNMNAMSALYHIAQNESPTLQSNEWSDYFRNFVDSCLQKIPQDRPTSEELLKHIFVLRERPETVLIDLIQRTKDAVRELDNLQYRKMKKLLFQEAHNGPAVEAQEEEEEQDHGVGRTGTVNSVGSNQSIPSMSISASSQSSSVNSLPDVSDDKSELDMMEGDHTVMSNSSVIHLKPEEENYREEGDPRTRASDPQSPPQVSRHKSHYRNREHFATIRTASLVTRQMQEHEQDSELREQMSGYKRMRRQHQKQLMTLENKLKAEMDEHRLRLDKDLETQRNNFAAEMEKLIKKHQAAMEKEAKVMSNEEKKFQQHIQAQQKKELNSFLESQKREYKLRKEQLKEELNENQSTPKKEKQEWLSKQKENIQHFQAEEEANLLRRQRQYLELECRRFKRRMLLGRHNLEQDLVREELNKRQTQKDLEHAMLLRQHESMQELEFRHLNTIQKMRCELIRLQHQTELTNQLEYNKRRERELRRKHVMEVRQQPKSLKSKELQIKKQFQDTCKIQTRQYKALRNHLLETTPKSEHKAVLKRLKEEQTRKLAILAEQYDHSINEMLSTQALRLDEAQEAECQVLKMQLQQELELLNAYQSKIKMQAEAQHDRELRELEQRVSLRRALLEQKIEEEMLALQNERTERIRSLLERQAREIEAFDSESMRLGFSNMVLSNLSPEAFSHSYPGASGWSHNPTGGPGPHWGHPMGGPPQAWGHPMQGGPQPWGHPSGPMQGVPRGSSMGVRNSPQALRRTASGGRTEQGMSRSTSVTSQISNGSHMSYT
# Excerpt: as §1
# [6] = biological target: 363 human kinases (including Aurora A/B/C) (Homo sapiens, UniProt Q96SB4); conditions: SRPK1; for remaining activity at 0.1 µM: 100 nM; for remaining activity at 0.1 µM / remaining activity at 0.5 µM: read-out: % Enzyme Activity (relative to DMSO controls)
# Excerpt: as §1
# [7] = biological target: T2, 363 human kinases (including Aurora A/B/C) (Homo sapiens, UniProt Q9H2K8); conditions: TAOK3/JIK; for remaining activity at 0.1 µM: 100 nM; for remaining activity at 0.1 µM / remaining activity at 0.5 µM: read-out: % Enzyme Activity (relative to DMSO controls)
# T2 sequence (Q9H2K8 1-898): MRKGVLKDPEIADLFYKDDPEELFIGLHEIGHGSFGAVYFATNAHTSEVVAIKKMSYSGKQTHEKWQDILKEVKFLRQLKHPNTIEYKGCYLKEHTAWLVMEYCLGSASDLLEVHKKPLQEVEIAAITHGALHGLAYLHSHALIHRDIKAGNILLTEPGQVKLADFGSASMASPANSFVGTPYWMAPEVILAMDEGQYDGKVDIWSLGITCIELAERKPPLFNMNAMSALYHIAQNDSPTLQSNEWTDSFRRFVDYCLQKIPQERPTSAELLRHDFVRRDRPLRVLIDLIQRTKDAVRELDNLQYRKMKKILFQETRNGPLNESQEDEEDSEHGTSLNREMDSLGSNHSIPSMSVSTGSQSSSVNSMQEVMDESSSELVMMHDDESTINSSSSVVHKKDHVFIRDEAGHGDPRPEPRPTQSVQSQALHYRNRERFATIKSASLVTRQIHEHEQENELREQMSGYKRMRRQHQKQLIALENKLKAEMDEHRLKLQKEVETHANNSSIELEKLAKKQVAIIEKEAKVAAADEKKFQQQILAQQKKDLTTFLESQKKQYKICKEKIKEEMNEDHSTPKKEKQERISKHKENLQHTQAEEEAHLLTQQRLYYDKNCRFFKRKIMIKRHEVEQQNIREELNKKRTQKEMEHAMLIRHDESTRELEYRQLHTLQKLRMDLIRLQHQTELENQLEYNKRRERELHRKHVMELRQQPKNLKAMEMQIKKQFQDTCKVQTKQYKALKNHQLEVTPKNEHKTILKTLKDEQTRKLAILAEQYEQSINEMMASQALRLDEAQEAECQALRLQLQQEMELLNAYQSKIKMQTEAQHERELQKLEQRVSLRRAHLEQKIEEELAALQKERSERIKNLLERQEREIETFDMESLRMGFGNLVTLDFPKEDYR
# Excerpt: as §1
# [8] = biological target: T3, 363 human kinases (including Aurora A/B/C) (Homo sapiens, UniProt Q9HBY8); conditions: SGK2; for remaining activity at 0.1 µM: 100 nM; for remaining activity at 0.1 µM / remaining activity at 0.5 µM: read-out: % Enzyme Activity (relative to DMSO controls)
# T3 sequence (Q9HBY8 1-367): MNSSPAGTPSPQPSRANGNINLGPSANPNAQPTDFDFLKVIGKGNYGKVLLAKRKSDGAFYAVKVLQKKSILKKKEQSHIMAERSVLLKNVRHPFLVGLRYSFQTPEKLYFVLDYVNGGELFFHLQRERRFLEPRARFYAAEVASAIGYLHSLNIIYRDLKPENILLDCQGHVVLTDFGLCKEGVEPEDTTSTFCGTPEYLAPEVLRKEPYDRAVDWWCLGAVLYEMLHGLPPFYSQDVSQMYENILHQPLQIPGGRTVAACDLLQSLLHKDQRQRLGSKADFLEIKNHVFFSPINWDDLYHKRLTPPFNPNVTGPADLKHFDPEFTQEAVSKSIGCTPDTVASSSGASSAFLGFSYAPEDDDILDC
# Excerpt: as §1
# [9] = biological target: 363 human kinases (including Aurora A/B/C) (Homo sapiens, UniProt Q9NQU5); conditions: PAK6; for remaining activity at 0.1 µM: 100 nM; for remaining activity at 0.1 µM / remaining activity at 0.5 µM: read-out: % Enzyme Activity (relative to DMSO controls)
# Sequence of 363 human kinases (including Aurora A/B/C) (Homo sapiens, UniProt Q9NQU5) (Q9NQU5 whole entry): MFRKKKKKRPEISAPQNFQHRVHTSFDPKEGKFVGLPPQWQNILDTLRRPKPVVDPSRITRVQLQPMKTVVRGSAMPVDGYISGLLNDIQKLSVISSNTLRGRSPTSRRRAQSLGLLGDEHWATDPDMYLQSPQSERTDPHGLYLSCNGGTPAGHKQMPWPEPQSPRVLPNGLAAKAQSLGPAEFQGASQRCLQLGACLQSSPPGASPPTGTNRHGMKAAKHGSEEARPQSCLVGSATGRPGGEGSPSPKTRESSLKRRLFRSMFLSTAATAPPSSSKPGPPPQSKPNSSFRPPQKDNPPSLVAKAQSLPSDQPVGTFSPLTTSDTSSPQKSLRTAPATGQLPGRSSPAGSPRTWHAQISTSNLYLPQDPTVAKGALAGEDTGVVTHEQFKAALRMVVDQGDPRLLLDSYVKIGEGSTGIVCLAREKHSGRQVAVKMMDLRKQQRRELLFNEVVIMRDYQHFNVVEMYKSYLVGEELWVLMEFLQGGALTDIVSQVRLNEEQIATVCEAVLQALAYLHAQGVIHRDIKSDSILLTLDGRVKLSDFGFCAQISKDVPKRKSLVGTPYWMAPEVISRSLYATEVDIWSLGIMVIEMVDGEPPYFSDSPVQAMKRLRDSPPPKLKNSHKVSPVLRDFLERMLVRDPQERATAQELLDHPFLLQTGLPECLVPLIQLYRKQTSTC
# Excerpt: as §1
# Sequence of 363 human kinases (including Aurora A/B/C) (Homo sapiens, UniProt P22455) (P22455 22-802): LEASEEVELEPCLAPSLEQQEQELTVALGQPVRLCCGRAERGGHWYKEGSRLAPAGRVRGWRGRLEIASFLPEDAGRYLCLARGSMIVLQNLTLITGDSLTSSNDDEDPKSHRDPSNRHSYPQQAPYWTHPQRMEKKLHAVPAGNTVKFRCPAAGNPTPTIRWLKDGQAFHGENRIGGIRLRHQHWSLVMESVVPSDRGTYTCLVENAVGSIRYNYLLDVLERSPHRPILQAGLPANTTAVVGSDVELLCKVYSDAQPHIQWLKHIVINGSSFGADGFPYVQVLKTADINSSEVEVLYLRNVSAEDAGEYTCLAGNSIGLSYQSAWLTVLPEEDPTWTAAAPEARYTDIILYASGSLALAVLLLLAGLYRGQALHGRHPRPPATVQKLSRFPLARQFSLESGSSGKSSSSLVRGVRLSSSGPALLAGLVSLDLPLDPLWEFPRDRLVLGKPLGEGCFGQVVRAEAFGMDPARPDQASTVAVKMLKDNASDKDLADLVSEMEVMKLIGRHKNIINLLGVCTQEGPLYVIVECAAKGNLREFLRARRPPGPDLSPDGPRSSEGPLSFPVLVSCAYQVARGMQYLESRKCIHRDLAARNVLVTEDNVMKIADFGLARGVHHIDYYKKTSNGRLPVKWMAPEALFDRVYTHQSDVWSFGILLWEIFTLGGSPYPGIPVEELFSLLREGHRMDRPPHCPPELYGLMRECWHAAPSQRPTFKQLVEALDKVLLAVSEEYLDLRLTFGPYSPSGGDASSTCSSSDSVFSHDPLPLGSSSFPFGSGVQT
# Sequence of 363 human kinases (including Aurora A/B/C) (Homo sapiens, UniProt Q96SB4) (Q96SB4 whole entry): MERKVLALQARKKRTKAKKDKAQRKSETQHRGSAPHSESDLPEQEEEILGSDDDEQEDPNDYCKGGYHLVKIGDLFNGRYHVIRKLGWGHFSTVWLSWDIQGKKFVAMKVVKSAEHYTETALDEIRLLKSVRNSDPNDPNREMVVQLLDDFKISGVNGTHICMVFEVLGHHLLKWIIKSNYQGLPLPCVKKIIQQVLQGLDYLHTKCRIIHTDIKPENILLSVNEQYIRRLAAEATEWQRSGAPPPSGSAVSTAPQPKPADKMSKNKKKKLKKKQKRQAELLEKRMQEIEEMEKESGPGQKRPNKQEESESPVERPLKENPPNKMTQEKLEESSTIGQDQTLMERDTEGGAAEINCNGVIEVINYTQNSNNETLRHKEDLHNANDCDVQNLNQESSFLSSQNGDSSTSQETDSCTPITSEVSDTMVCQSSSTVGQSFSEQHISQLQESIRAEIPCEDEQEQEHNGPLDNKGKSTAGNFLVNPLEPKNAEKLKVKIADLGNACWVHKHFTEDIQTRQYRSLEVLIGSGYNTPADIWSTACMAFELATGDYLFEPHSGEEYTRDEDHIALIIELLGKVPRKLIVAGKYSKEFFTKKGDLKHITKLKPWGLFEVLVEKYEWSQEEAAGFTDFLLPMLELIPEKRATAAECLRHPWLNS
# Sequence of 363 human kinases (including Aurora A/B/C) (Homo sapiens, UniProt Q02779) (Q02779 whole entry): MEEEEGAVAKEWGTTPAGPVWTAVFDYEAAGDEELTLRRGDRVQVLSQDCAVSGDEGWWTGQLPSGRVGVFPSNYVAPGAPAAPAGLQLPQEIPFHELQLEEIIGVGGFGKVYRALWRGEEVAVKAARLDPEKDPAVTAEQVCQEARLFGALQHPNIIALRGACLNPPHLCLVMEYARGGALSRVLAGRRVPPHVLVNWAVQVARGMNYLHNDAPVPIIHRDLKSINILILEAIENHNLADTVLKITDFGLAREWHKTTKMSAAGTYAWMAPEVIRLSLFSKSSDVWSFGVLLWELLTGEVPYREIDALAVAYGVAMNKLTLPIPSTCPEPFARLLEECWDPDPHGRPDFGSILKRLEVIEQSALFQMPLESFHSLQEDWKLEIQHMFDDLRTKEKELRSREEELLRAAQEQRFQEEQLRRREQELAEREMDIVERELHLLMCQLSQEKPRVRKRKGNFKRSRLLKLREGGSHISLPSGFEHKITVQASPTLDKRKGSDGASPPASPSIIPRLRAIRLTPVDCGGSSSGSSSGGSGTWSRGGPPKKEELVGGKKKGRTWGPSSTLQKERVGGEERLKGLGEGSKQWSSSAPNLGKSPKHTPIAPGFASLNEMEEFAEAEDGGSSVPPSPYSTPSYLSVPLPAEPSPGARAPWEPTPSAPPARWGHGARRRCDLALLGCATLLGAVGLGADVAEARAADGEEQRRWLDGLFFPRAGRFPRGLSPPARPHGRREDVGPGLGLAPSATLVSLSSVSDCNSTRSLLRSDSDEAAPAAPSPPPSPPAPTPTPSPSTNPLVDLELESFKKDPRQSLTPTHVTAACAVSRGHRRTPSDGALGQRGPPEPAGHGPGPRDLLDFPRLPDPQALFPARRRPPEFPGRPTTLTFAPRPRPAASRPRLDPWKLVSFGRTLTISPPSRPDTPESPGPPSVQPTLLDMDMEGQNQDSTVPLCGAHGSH
# Sequence of 363 human kinases (including Aurora A/B/C) (Homo sapiens, UniProt O00238) (O00238 14-502): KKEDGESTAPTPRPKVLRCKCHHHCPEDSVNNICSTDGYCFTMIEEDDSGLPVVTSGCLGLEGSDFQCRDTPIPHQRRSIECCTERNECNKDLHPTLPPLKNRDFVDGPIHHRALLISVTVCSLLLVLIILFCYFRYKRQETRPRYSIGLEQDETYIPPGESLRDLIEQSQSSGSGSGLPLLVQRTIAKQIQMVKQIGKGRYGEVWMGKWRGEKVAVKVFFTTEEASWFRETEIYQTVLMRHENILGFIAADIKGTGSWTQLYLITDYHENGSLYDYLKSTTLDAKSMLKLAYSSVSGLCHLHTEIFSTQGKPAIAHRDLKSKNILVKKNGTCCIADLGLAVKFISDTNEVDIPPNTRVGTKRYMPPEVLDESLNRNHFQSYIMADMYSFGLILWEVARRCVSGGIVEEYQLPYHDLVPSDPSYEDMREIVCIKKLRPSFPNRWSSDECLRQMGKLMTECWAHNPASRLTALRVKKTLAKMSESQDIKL
# Sequence of 363 human kinases (including Aurora A/B/C) (Homo sapiens, UniProt P51812) (P51812 whole entry): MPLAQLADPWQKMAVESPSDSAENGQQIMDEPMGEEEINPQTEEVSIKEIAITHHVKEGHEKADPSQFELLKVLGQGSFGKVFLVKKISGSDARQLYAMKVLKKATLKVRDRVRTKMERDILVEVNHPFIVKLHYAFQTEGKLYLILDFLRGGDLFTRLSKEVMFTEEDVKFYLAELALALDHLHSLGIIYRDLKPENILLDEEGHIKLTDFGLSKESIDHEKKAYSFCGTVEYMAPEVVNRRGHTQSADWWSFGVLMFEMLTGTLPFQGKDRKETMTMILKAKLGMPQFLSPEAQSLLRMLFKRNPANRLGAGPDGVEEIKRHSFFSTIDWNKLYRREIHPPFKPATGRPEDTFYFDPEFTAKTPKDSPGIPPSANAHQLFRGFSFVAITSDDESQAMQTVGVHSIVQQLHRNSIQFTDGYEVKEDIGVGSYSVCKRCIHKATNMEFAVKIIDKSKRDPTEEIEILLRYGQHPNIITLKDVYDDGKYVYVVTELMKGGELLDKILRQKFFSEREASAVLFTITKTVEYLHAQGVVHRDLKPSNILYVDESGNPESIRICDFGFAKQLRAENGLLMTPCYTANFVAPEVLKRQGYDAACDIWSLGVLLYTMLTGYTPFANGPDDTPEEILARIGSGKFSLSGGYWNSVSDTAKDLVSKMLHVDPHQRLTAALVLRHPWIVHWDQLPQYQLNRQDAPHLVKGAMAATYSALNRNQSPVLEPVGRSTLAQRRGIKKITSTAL
Compound,remaining activity at 0.1 µM [1] [%],remaining activity at 0.5 µM ([1]; 500 nM) [%],remaining activity at 0.1 µM [2] [%],remaining activity at 0.5 µM ([2]; 500 nM) [%],remaining activity at 0.1 µM [3] [%],remaining activity at 0.5 µM ([3]; 500 nM) [%],remaining activity at 0.1 µM [4] [%],remaining activity at 0.5 µM ([4]; 500 nM) [%],remaining activity at 0.1 µM [5] [%],remaining activity at 0.5 µM ([5]; 500 nM) [%],remaining activity at 0.1 µM [6] [%],remaining activity at 0.5 µM ([6]; 500 nM) [%],remaining activity at 0.1 µM [7] [%],remaining activity at 0.5 µM ([7]; 500 nM) [%],remaining activity at 0.1 µM [8] [%],remaining activity at 0.5 µM ([8]; 500 nM) [%],remaining activity at 0.1 µM [9] [%],remaining activity at 0.5 µM ([9]; 500 nM) [%],further results
O=C(O)[C@]1(Cc2cccc(Nc3nccs3)n2)CC[C@@H](Oc2cccc(Cl)c2F)CC1 [MK-5108],101,46.2,91.7,126,101,99.5,23.5,5.55,89.5,70.3,101,95.5,80.2,110,105,105,99.8,97,
O=C(c1cccc(Cl)c1F)N1CCN(Cc2cccc(Nc3nccs3)n2)CC1 [MK-8745],,92,,118,,105,,79.9,,89.7,,101,,95.2,,100,,90.3,% Enzyme Activity (relative to DMSO controls) ([1]; 500 nM): 91.78%; % Enzyme Activity (relative to DMSO controls) ([2]; 500 nM): 106.52%; % Enzyme Activity (relative to DMSO controls) ([3]; 500 nM): 101.95%; % Enzyme Activity (relative to DMSO controls) ([4]; 500 nM): 79.50%; % Enzyme Activity (relative to DMSO controls) ([5]; 500 nM): 88.72%; % Enzyme Activity (relative to DMSO controls) ([6]; 500 nM): 99.92%; % Enzyme Activity (relative to DMSO controls) ([7]; 500 nM): 93.76%; % Enzyme Activity (relative to DMSO controls) ([8]; 500 nM): 98.06%; % Enzyme Activity (relative to DMSO controls) ([9]; 500 nM): 89.27%
CCn1cc(-c2ccnc3[nH]c(-c4cccc(CN(C)C)c4)cc23)c(-c2ccc(NC(=O)N(C)C)cc2)n1 [GSK1070916],89.2,,125,,107,,75.6,,96,,103,,174,,102,,103,,
